Earlier results in patent publication US9468638B2, “Itraconazole formulations” (Texas Southern University, priority 2010, dated 2016).
Values after ≈ are worked out from the molar mass of the structure shown. Read-outs that look alike come from different tables or passages of the source.

How the values were obtained:
[1] = pH=8.1
[2] = not given; remark: listed apart in the source
[3] = in vivo, iv
[4] = rat, in vivo
[5] = human, in vivo, iv

Row | Molecule | water solubility (neutral pH) | water solubility (pH=1) | n-octanol/water partition coefficient log Po/w [1] | solubility in PEG 400 ([2]; PEG 400) | solubility in Tween 20 ([2]; Tween 20) | toxicity that led to discontinuation of Sporanox I.V. Injection [3] | carcinogenicity finding [4] | reduced clearance of hydroxylpropyl-β-cyclodextrin [5]
1 | CCC(C)n1ncn(-c2ccc(N3CCN(c4ccc(OCC5COC(Cn6cncn6)(c6ccc(Cl)cc6Cl)O5)cc4)CC3)cc2)c1=O (centres unmarked) [Itraconazole] | about 1 ng/mL | approximately 4 mcg/mL | 5.66 | 2140 µg/mL (≈ 3030 µM) | 1190 µg/mL (≈ 1690 µM) | – | – | –
2 | hydroxylpropyl-β-cyclodextrin | – | – | – | – | – | renal toxicity | produced pancreatic adenocarcinomas | 6 fold
